For 26 molecules, IC50 results are on record in patent publication US20200069691A1, “HETEROCYCLIC COMPOUNDS AS HIV PROTEASE INHIBITORS” (Merck Sharp & Dohme Corp., priority 2016, published 2020).

Molecules are shown by their SMILES. pIC50: −log10 of the molar value.

In this test the target is T1, wild-type HIV-1 protease (Human immunodeficiency virus type 1 group M subtype B, UniProt P04585).
T1 construct: Escherichia coli expressed wild-type HIV-1 protease protein
As to the kind of experiment: Assay for Inhibition of Microbial Expressed HIV Protease (peptide substrate cleavage, LC-MS/MS readout). The test is classed as biochemical. The note with it: E. coli expressed wild-type HIV-1 protease, mean of at least two independent experiments, read-out: HIV Pr Enzyme HIV1 PR IC50. In a few lines:
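E. coli-expressed wild-type HIV-1 protease ([…]) was preincubated with inhibitor 30 min at room temperature in pH 5.5 acetate buffer (100 mM NaCl, 0.1% BSA). Then 400 μM octapeptide substrate was added and reacted 1 h at 30 °C; inhibition came from LC-MS/MS product peak areas, mean of ≥2 experiments.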

Take `CCOC(=O)NC1CCN(C(=O)c2cccc(CN3C(=N)NC(c4ccccc4)(c4ccccc4)C3=O)c2)CC1` [Compound 355, ethyl [1-({3-[(2-imino-5-oxo-4,4-diphenylimidazolidin-1-yl)methyl]phenyl}carbonyl)piperidin-4-yl]carbamate]: the pIC50 is 7.05.

Turning to `N=C1NC(c2ccccc2)(c2ccccc2)C(=O)N1Cc1cccc(C(=O)N2CCc3ccc(F)cc3C2)c1` [Compound 269, 3-{3-[(7-fluoro-3,4-dihydroisoquinolin-2(1H)-yl)carbonyl]benzyl}-2-imino-5,5-diphenylimidazolidin-4-one], the pIC50 is 7.57.

On to `CC(C)CC1(c2ccccc2)NC(=N)N(Cc2cc(C(=O)N3Cc4nccnc4C3)ccn2)C1=O` (centres unmarked) [Compound 403, 3-{[4-(5,7-dihydro-6H-pyrrolo[3,4-b]pyrazin-6-ylcarbonyl)pyridin-2-yl]methyl}-2-imino-5-(2-methylpropyl)-5-phenylimidazolidin-4-one], for which the pIC50 was 7.27.

As for `Cc1nnc(-c2cccc(-c3ncc4c(n3)CN(C(=O)c3cc(CN5C(=N)N[C@](CCCC(F)(F)F)(c6ccc(F)cc6)C5=O)ccc3C(F)(F)F)C4)c2)o1` [Compound 48, (5R)-5-(4-fluorophenyl)-2-imino-3-[3-({2-[3-(5-methyl-1,3,4-oxadiazol-2-yl)phenyl]-5,7-dihydro-6H-pyrrolo[3,4-d]pyrimidin-6-yl}carbonyl)-4-(trifluoromethyl)-benzyl]-5-(4,4,4-trifluorobutyl)-imidazolidin-4-one], the pIC50 is 8.28.

As to `N=C1NC(c2ccccc2)(c2ccccc2)C(=O)N1Cc1cc(C(=O)N2Cc3cncnc3C2)ccn1` [Compound 401, 3-{[4-(5,7-dihydro-6H-pyrrolo[3,4-d]pyrimidin-6-ylcarbonyl)pyridin-2-yl]methyl}-2-imino-5,5-diphenylimidazolidin-4-one], the pIC50 was 7.50.

`N=C1NC(c2ccc(F)cc2)(c2ccc(F)cc2)C(=O)N1Cc1ccc(C(F)(F)F)c(C(=O)N2Cc3nccnc3C2)c1` [Compound 139, 3-[3-(5,7-dihydro-6H-pyrrolo[3,4-b]pyrazin-6-ylcarbonyl)-4-(trifluoromethyl)benzyl]-5,5-bis(4-fluorophenyl)-2-iminoimidazolidin-4-one]: the pIC50 is 8.53.

On to `CC(C)CCC1(c2ccc(F)cc2)NC(=N)N(Cc2ccc(C(F)(F)F)c(C(=O)N3CC[C@@]4(c5ccccc5)NOC[C@H]4C3)c2)C1=O` (stereo partly drawn) [Compound 163, 5-(4-fluorophenyl)-2-imino-5-(3-methylbutyl)-3-[3-{[(3aS,7aR)-7a-phenylhexahydro-isoxazolo[4,3-c]pyridin-5(3H)-yl]carbonyl}-4-(trifluoromethyl)benzyl] imidazolidin-4-one], for which the pIC50 was 7.48.

Regarding `N=C1N[C@](CCCC(F)(F)F)(c2ccc(F)cc2)C(=O)N1Cc1ccc(C(F)(F)F)c(C(=O)N2Cc3cnc(-c4cnn(-c5cccc(Cl)c5)c4)nc3C2)c1` [Compound 133, (5R)-3-[3-({2-[1-(3-chlorophenyl)-1H-pyrazol-4-yl]-5,7-dihydro-6H-pyrrolo[3,4-d]pyrimidin-6-yl}carbonyl)-4-(trifluoromethyl)-benzyl]-5-(4-fluorophenyl)-2-imino-5-(4,4,4-trifluorobutyl)imidazolidin-4-one], the pIC50 is 7.06.

Consider `CN(C)C(=O)c1cccc(C2(c3ccc(F)cc3)NC(=N)N(Cc3cccc(C(=O)N4Cc5ccccc5C4)c3)C2=O)c1` (centres unmarked) [Compound 306, 3-{1-[3-(1,3-dihydro-2H-isoindol-2-ylcarbonyl)benzyl]-4-(4-fluorophenyl)-2-imino-5-oxoimidazolidin-4-yl}-N,N-dimethylbenzamide], for which the pIC50 is 7.32.

For `COC(=O)C1c2ccccc2CN1C(=O)c1cccc(CN2C(=N)NC(c3ccccc3)(c3ccccc3)C2=O)c1` (centres unmarked) [Compound 287, methyl 2-({3-[(2-imino-5-oxo-4,4-diphenylimidazolidin-1-yl)methyl]phenyl}carbonyl)-2,3-dihydro-1H-isoindole-1-carboxylate], the pIC50 is 7.47.

For the molecule `N=C1NC(c2ccc(F)cc2)(c2ccc(F)cc2)C(=O)N1Cc1ccc(F)c(C(=O)N2Cc3nccnc3C2)c1` [Compound 382, 3-[3-(5,7-dihydro-6H-pyrrolo[3,4-b]pyrazin-6-ylcarbonyl)-4-fluorobenzyl]-5,5-bis(4-fluorophenyl)-2-iminoimidazolidin-4-one], the pIC50 was 7.88.

With `CC(C)CCC1(c2ccccc2)NC(=N)N(Cc2cccc(C(=O)N3CCN(c4ncccn4)CC3)c2)C1=O` (centres unmarked) [Compound 244, 2-imino-5-(3-methylbutyl)-5-phenyl-3-{3-[(4-pyrimidin-2-ylpiperazin-1-yl)carbonyl]benzyl} imidazolidin-4-one], the pIC50 was 7.78.

Turning to `COc1ccc(CN2C(=N)NC(c3ccc(Cl)cc3)(c3ccc(Cl)cc3)C2=O)cc1C(=O)N1Cc2nccnc2C1` [Compound 369, 5,5-bis(4-chlorophenyl)-3-[3-(5,7-dihydro-6H-pyrrolo[3,4-b]pyrazin-6-ylcarbonyl)-4-methoxybenzyl]-2-iminoimidazolidin-4-one], the pIC50 is 7.50.

As to `CC(C)NC(=O)N1CCN(C(=O)c2cccc(CN3C(=N)NC(c4ccccc4)(c4ccccc4)C3=O)c2)CC1` [Compound 326, 4-({3-[(2-imino-5-oxo-4,4-diphenylimidazolidin-1-yl)methyl]phenyl}carbonyl)-N-(1-methylethyl) piperazine-1-carboxamide], the pIC50 was 7.23.

`N=C1NC(c2ccccc2)(c2ccccc2)C(=O)N1Cc1ccc(C(F)(F)F)c(C(=O)N2CCNC(=O)C2)c1` [Compound 160, 4-({5-[(2-imino-5-oxo-4,4-diphenylimidazolidin-1-yl)methyl]-2-(trifluoromethyl)phenyl}-carbonyl)piperazin-2-one]: the pIC50 is 7.69.

Turning to `CC(C)Cn1cc(-c2ncc3c(n2)CN(C(=O)c2cc(CN4C(=N)N[C@](CCCC(F)(F)F)(c5ccc(F)cc5)C4=O)ccc2C(F)(F)F)C3)cn1` [Compound 46, (5R)-5-(4-fluorophenyl)-2-imino-3-[3-({2-[1-(2-methylpropyl)-1H-pyrazol-4-yl]-5,7-dihydro-6H-pyrrolo[3,4-d]pyrimidin-6-yl}carbonyl)-4-(trifluoromethyl)-benzyl]-5-(4,4,4-trifluorobutyl)-imidazolidin-4-one], the pIC50 was 8.32.

Regarding `COC(=O)N1CCN(C(=O)c2ccnc(CN3C(=N)NC(c4ccc(F)cc4)(c4ccc(F)cc4)C3=O)c2)CC1` [Compound 404, methyl 4-[(2-{[4,4-bis(4-fluorophenyl)-2-imino-5-oxoimidazolidin-1-yl]methyl}pyridin-4-yl)carbonyl]piperazine-1-carboxylate], the pIC50 was 7.23.

Take `CC(C)CCC1(c2ccccc2)NC(=N)N(Cc2cccc(C(=O)N3Cc4cccnc4C3)c2)C1=O` (centres unmarked) [Compound 218, 3-[3-(5,7-dihydro-6H-pyrrolo[3,4-b]pyridin-6-ylcarbonyl)benzyl]-2-imino-5-(3-methylbutyl)-5-phenylimidazolidin-4-one]: the pIC50 is 7.98.

For the molecule `N=C1NC(c2ccccc2)(c2ccccc2)C(=O)N1Cc1cccc(C(=O)N2CCn3nc(C(F)(F)F)nc3C2)c1` [Compound 301, 2-imino-5,5-diphenyl-3-(3-{[2-(trifluoromethyl)-5,6-dihydro[1,2,4]triazolo[1,5-a]pyrazin-7(8H)-yl]carbonyl}benzyl) imidazolidin-4-one], the pIC50 is 7.35.

`N=C1NC(c2ccc(F)cc2)(c2ccc(F)cc2)C(=O)N1Cc1cccc(C(=O)N2Cc3ccccc3C2)c1` [Compound 195, 3-[3-(1,3-dihydro-2H-isoindol-2-ylcarbonyl)benzyl]-5,5-bis(4-fluorophenyl)-2-iminoimidazolidin-4-one]: the pIC50 is 7.24.

In the case of `N=C1N[C@](CCCC(F)(F)F)(c2ccc(F)cc2)C(=O)N1[C@@H]1CCCc2ccc(C(=O)N3Cc4nccnc4C3)cc21` [Compound 116, (5R)-3-[(1R)-7-(5,7-dihydro-6H-pyrrolo[3,4-b]pyrazin-6-ylcarbonyl)-1,2,3,4-tetrahydro-naphthalen-1-yl]-5-(4-fluoro-phenyl)-2-imino-5-(4,4,4-trifluorobutyl)imidazolidin-4-one], the pIC50 was 7.42.

As for `N=C1NC(c2ccc(F)cc2)(c2ccc(F)cc2)C(=O)N1Cc1ccc(C(F)(F)F)c(C(=O)N2CCC2)c1` [Compound 173, 3-[3-(azetidin-1-ylcarbonyl)-4-(trifluoromethyl)benzyl]-5,5-bis(4-fluorophenyl)-2-iminoimidazolidin-4-one], the pIC50 was 7.27.

Turning to `CC(C)CCC1(c2ccccc2)NC(=N)N(Cc2ccc(C(F)(F)F)c(C(=O)N3Cc4nccnc4C3)c2)C1=O` (centres unmarked) [Compound 151, 3-[3-(5,7-dihydro-6H-pyrrolo[3,4-b]pyrazin-6-ylcarbonyl)-4-(trifluoromethyl)benzyl]-2-imino-5-(3-methylbutyl)-5-phenylimidazolidin-4-one], the pIC50 was 8.18.

Turning to `COc1nnc2n1CCN(C(=O)c1cccc(CN3C(=N)NC(c4ccccc4)(c4ccccc4)C3=O)c1)C2` [Compound 340, 2-imino-3-{3-[(3-methoxy-5,6-dihydro[1,2,4]triazolo[4,3-a]pyrazin-7(8H)-yl)carbonyl]benzyl}-5,5-diphenylimidazolidin-4-one], the pIC50 is 7.12.

For `CC(C)CC[C@]1(c2ccccc2)NC(=N)N([C@H](C)c2cccc(C(=O)N3CCN(C)C(=O)C3)c2)C1=O` [Compound 272, 4-[(3-{(1R)-1-[2-imino-4-(3-methylbutyl)-5-oxo-4-phenylimidazolidin-1-yl]ethyl}phenyl)carbonyl]-1-methylpiperazin-2-one], the pIC50 was 7.55.

For the molecule `CC(C)CC[C@]1(c2ccccc2)NC(=N)N([C@@H]2CCS(=O)(=O)c3ccc(C(=O)N4Cc5nccnc5C4)cc32)C1=O` [Compound 111, (5R)-3-[(4R)-6-(5,7-dihydro-6H-pyrrolo[3,4-b]pyrazin-6-ylcarbonyl)-1,1-dioxido-3,4-dihydro-2H-thiochromen-4-yl]-2-imino-5-(3-methylbutyl)-5-phenylimidazolidin-4-one], the pIC50 was 7.55.

In general, pIC50 refers to the IC50 on a negative log10 scale, so that one unit is a factor of ten.
